# Measured values as given in PubChem BioAssay AID1963964 (Molecular Pharmacology Branch, DTP, NCI, 2024).
# Tested on: 997726-040-R-J2-PDC tumor spheroids, viability
# Assay: Anticancer human tumor 997726-040-R-J2-PDC patient-derived squamous cell lung carcinoma cell line growth inhibition [PI3K]
# Details: spheroids with HUVEC and MSC; for IC50: curve of first compound; for viability, T/C: stronger effect = lower value
# Summary of the method: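 Tumor cells grown as multi-cell spheroids with HUVEC endothelial cells and MSC fibroblast-like stroma were treated with targeted agents combined with inavolisib, alpelisib, duvelisib or copanlisib. Doses fell in half-log steps from near clinical Cmax, else from 10 microM. Viability was measured.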
# [1] = second compound 0.0316 µM, first compound 0.0316 µM
# [2] = second compound 0.0316 µM, first compound 0.1 µM
# [3] = second compound 0.1 µM, first compound 0.0316 µM
# [4] = second compound 0.1 µM, first compound 0.1 µM
# [5] = second compound 0.316 µM, first compound 0.0316 µM
# [6] = second compound 0.316 µM, first compound 0.1 µM
# [7] = second compound 1 µM, first compound 0.0316 µM
# [8] = second compound 1 µM, first compound 0.1 µM
# [9] = second compound 0.0316 µM, first compound 0.316 µM
# [10] = second compound 0.0316 µM, first compound 1 µM
# [11] = second compound 0.0316 µM, first compound 3.16 µM
# [12] = second compound 0.0316 µM, first compound 10 µM
# [13] = second compound 0.1 µM, first compound 0.316 µM
# [14] = second compound 0.1 µM, first compound 1 µM
# [15] = second compound 0.1 µM, first compound 3.16 µM
# [16] = second compound 0.1 µM, first compound 10 µM
# [17] = second compound 0.316 µM, first compound 0.316 µM
# [18] = second compound 0.316 µM, first compound 1 µM
# [19] = second compound 0.316 µM, first compound 3.16 µM
# [20] = second compound 0.316 µM, first compound 10 µM
# [21] = second compound 1 µM, first compound 0.316 µM
# [22] = second compound 1 µM, first compound 1 µM
# [23] = second compound 1 µM, first compound 3.16 µM
# [24] = second compound 1 µM, first compound 10 µM
# [25] = second compound 3.16 µM, first compound 0.0316 µM
# [26] = second compound 3.16 µM, first compound 0.1 µM
# [27] = second compound 3.16 µM, first compound 0.316 µM
# [28] = second compound 3.16 µM, first compound 1 µM
# [29] = second compound 3.16 µM, first compound 3.16 µM
# [30] = second compound 3.16 µM, first compound 10 µM
# [31] = second compound 10 µM, first compound 0.0316 µM
# [32] = second compound 10 µM, first compound 0.1 µM
# [33] = second compound 10 µM, first compound 0.316 µM
# [34] = second compound 10 µM, first compound 1 µM
# [35] = second compound 10 µM, first compound 3.16 µM
# [36] = second compound 10 µM, first compound 10 µM
# 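Note: spheroids exposed to compounds for seven days before readout.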
compound,measurement,setting,value
CC(C)n1nc(-c2ccc3oc(N)nc3c2)c2c(N)ncnc21 + COc1c(OCCCN2CCOCC2)ccc2c3n(c(=NC(=O)c4cnc(N)nc4)nc12)CCN3,IC50,second compound 0.00316 µM,18.2 nM
same,IC50,second compound 0.01 µM,2.97 nM
same,IC50,second compound 0.0316 µM,< 0.316 nM
same,IC50,second compound 0.1 µM,< 0.316 nM
same,IC50,second compound 0.316 µM,< 0.316 nM
same,IC50,second compound 1 µM,< 0.316 nM
same,"viability, T/C","second compound 0.00316 µM, first compound 0.000316 µM",74%
same,"viability, T/C","second compound 0.00316 µM, first compound 0.001 µM",76.6%
same,"viability, T/C","second compound 0.00316 µM, first compound 0.00316 µM",70%
same,"viability, T/C","second compound 0.00316 µM, first compound 0.01 µM",61.1%
same,"viability, T/C","second compound 0.00316 µM, first compound 0.0316 µM",39.9%
same,"viability, T/C","second compound 0.00316 µM, first compound 0.1 µM",16.4%
same,"viability, T/C","second compound 0.01 µM, first compound 0.000316 µM",57.2%
same,"viability, T/C","second compound 0.01 µM, first compound 0.001 µM",57.9%
same,"viability, T/C","second compound 0.01 µM, first compound 0.00316 µM",45.5%
same,"viability, T/C","second compound 0.01 µM, first compound 0.01 µM",42.2%
same,"viability, T/C","second compound 0.01 µM, first compound 0.0316 µM",33.2%
same,"viability, T/C","second compound 0.01 µM, first compound 0.1 µM",13.1%
same,"viability, T/C","second compound 0.0316 µM, first compound 0.000316 µM",32.4%
same,"viability, T/C","second compound 0.0316 µM, first compound 0.001 µM",35.5%
same,"viability, T/C","second compound 0.0316 µM, first compound 0.00316 µM",32.5%
same,"viability, T/C","second compound 0.0316 µM, first compound 0.01 µM",29.6%
same,"viability, T/C",[1],23.7%
same,"viability, T/C",[2],5.54%
same,"viability, T/C","second compound 0.1 µM, first compound 0.000316 µM",25.5%
same,"viability, T/C","second compound 0.1 µM, first compound 0.001 µM",22.1%
same,"viability, T/C","second compound 0.1 µM, first compound 0.00316 µM",21.3%
same,"viability, T/C","second compound 0.1 µM, first compound 0.01 µM",16.3%
same,"viability, T/C",[3],9.54%
same,"viability, T/C",[4],2.12%
same,"viability, T/C","second compound 0.316 µM, first compound 0.000316 µM",5.5%
same,"viability, T/C","second compound 0.316 µM, first compound 0.001 µM",4.4%
same,"viability, T/C","second compound 0.316 µM, first compound 0.00316 µM",4.05%
same,"viability, T/C","second compound 0.316 µM, first compound 0.01 µM",2.91%
same,"viability, T/C",[5],1.89%
same,"viability, T/C",[6],1.02%
same,"viability, T/C","second compound 1 µM, first compound 0.000316 µM",1.83%
same,"viability, T/C","second compound 1 µM, first compound 0.001 µM",1.51%
same,"viability, T/C","second compound 1 µM, first compound 0.00316 µM",1.18%
same,"viability, T/C","second compound 1 µM, first compound 0.01 µM",1.56%
same,"viability, T/C",[7],1.91%
same,"viability, T/C",[8],0.84%
CC1(C)CCC(CN2CCN(c3ccc(C(=O)NS(=O)(=O)c4ccc(NCC5CCOCC5)c([N+](=O)[O-])c4)c(Oc4cnc5[nH]ccc5c4)c3)CC2)=C(c2ccc(Cl)cc2)C1 + Cc1nc(NC(=O)N2CCCC2C(N)=O)sc1-c1ccnc(C(C)(C)C(F)(F)F)c1,IC50,second compound 0.0316 µM,6130 nM
same,IC50,second compound 0.1 µM,5140 nM
same,IC50,second compound 0.316 µM,2490 nM
same,IC50,second compound 1 µM,< 31.6 nM
same,IC50,second compound 3.16 µM,< 31.6 nM
same,IC50,second compound 10 µM,< 31.6 nM
same,"viability, T/C",[1],84.2%
same,"viability, T/C",[2],90.8%
same,"viability, T/C",[9],86.1%
same,"viability, T/C",[10],91.3%
same,"viability, T/C",[11],76%
same,"viability, T/C",[12],30.9%
same,"viability, T/C",[3],73%
same,"viability, T/C",[4],71.8%
same,"viability, T/C",[13],74.9%
same,"viability, T/C",[14],75.5%
same,"viability, T/C",[15],67.4%
same,"viability, T/C",[16],25.7%
same,"viability, T/C",[5],58.3%
same,"viability, T/C",[6],58.6%
same,"viability, T/C",[17],56.2%
same,"viability, T/C",[18],53.6%
same,"viability, T/C",[19],49.5%
same,"viability, T/C",[20],25.6%
same,"viability, T/C",[7],48.9%
same,"viability, T/C",[8],41%
same,"viability, T/C",[21],39%
same,"viability, T/C",[22],39.5%
same,"viability, T/C",[23],39.2%
same,"viability, T/C",[24],11.1%
same,"viability, T/C",[25],25%
same,"viability, T/C",[26],28.1%
same,"viability, T/C",[27],27.2%
same,"viability, T/C",[28],26.2%
same,"viability, T/C",[29],24.5%
same,"viability, T/C",[30],8.65%
same,"viability, T/C",[31],14.8%
same,"viability, T/C",[32],10.8%
same,"viability, T/C",[33],7.16%
same,"viability, T/C",[34],6.93%
same,"viability, T/C",[35],5.25%
same,"viability, T/C",[36],2.97%
CNC(=O)c1ccc(N2C(=S)N(c3ccc(C#N)c(C(F)(F)F)c3)C(=O)C2(C)C)cc1F + Cc1nc(NC(=O)N2CCCC2C(N)=O)sc1-c1ccnc(C(C)(C)C(F)(F)F)c1,IC50,second compound 0.0316 µM,> 10000 nM
same,IC50,second compound 0.1 µM,> 10000 nM
same,IC50,second compound 0.316 µM,> 10000 nM
same,IC50,second compound 1 µM,< 31.6 nM
same,IC50,second compound 3.16 µM,< 31.6 nM
same,IC50,second compound 10 µM,< 31.6 nM
same,"viability, T/C",[1],74.4%
same,"viability, T/C",[2],82.2%
same,"viability, T/C",[9],80.9%
same,"viability, T/C",[10],89.3%
same,"viability, T/C",[11],81.9%
same,"viability, T/C",[12],78.8%
same,"viability, T/C",[3],74.5%
same,"viability, T/C",[4],81.3%
same,"viability, T/C",[13],73.5%
same,"viability, T/C",[14],69.7%
same,"viability, T/C",[15],70.5%
same,"viability, T/C",[16],71.1%
same,"viability, T/C",[5],51.3%
same,"viability, T/C",[6],65%
same,"viability, T/C",[17],54.5%
same,"viability, T/C",[18],57.9%
same,"viability, T/C",[19],48.9%
same,"viability, T/C",[20],54.6%
same,"viability, T/C",[7],41.7%
same,"viability, T/C",[8],44.2%
same,"viability, T/C",[21],37.5%
same,"viability, T/C",[22],38.2%
same,"viability, T/C",[23],39.9%
same,"viability, T/C",[24],39%
same,"viability, T/C",[25],32.7%
same,"viability, T/C",[26],29.3%
same,"viability, T/C",[27],26.9%
same,"viability, T/C",[28],29.5%
same,"viability, T/C",[29],30.4%
same,"viability, T/C",[30],25.5%
same,"viability, T/C",[31],16.1%
same,"viability, T/C",[32],16.9%
same,"viability, T/C",[33],12.6%
same,"viability, T/C",[34],13.2%
same,"viability, T/C",[35],11.9%
same,"viability, T/C",[36],9.07%
